Results from patent US20230241031A1, “Composition, Comprising Rip Kinase Inhibitor, For Preventing Hair Loss Or Promoting Hair Regrowth” (Epi Biotech Co., Ltd., priority 2019, published 2023).

Key:
mouse vibrissae = assay: Hair growth induction in organ-cultured mouse vibrissae; format: cell-based, mouse (C57BL/6 female mice); conditions: vibrissae cultured 3 days at 37° C.; for degree of hair growth induction (efficacy of promoting hair growth): vs untreated group; for degree of hair growth induction: siRNA treatment, vs control siRNA, FIG. 6; for degree of hair growth induction (effect of promoting hair growth): compared to inactive type necrostatin-1, FIG. 1
Experimental: Specifically, the vibrissae of C57BL/6 female mice were trimmed and organ cultured. […] The vibrissae of the three treatment groups were treated with 10 μM, respectively, and then cultured for 3 days in an incubator at 37° C.
(§1) Specifically, the vibrissae of C57BL/6 female mice were trimmed and organ cultured. The trimmed vibrissae were cultured in a 48-well plate so as to become one per well, and divided into a total of 3 groups: the untreated group (control group), the group treated with 1 μM sibiriline, and the group treated with 10 μM sibiriline. The vibrissae were treated, respectively, and then cultured for 3 days in an incubator at 37° C.
as §1, with “GSK963,” for “sibiriline,”, “GSK963.” for “sibiriline.”
as §1, with “of C57/BL6” for “of C57BL/6”, “of 4” for “of 3”, “μM GSK2982772,” for “μM sibiriline, and”, “μM GSK2982772, and the group treated with 50 μM GSK2982772.” for “μM sibiriline.”
as §1, with “the” for “the untreated”, “treated with RIPK1 siRNA,” for “(control group),”, “RIPK3 siRNA,” for “1 μM sibiriline,”, “control siRNA (control group) in Table 1.” for “10 μM sibiriline.”

C3H/HeN mice = assay: Hair regrowth on the back of depilated mice after topical application; format: in vivo, mouse (C3H/HeN, male); conditions: 100 μl applied to the back, 13 days, FIG. 2
Text: The hairs of ten 6-week-old male C3H/HeN mice were shaved short using a depilatory machine, and the remaining hairs were completely removed using a depilatory agent, and then they were stabilized for one day before use in the experiment.
Mice were divided into 5 mice per group under the following conditions to conduct an experiment.
After 13 days, the hairs on the back of the mouse in which hair regrowth occurred were shaved using a razor, and then the hairs were obtained, and the weight was measured.

Q: With `CC(C)(C)C(=O)N1N=CCC1c1ccccc1` (stereo not shown) [GSK963] as the compound, how does the “degree of hair growth induction (efficacy of promoting hair growth)” value (shortened to “degree … (efficacy of promoting hair growth)”) (mouse vibrissae; 1 μM) read?
A: excellent efficacy of promoting hair growth

Q: What about the “degree … (efficacy of promoting hair growth)” value (mouse vibrissae; 10 μM) of the same compound?
A: excellent efficacy of promoting hair growth

Q: How did the “degree of hair growth induction” value (mouse vibrissae) turn out when “RIPK3 siRNA: siRNA of SEQ ID NO: 3 and 4 capable of inhibiting RIP kinase expression (chain 1 CGAGUGAUGUCUACAGCUU; chain 2 AAGCUGUAGACAUCACUCG; listed as RNA, chemistry not given here)” was run?
A: hair growth was promoted

Q: How did the “degree of hair growth induction (effect of promoting hair growth)” value (mouse vibrissae; 10 μM) turn out when `CN1C(=O)C(Cc2c[nH]c3ccccc23)NC1=S` (stereo not shown) [necrostatin-1] was run?
A: excellent effect of promoting hair growth compared to the inactive type necrostatin-1

Q: Which “effect of inducing hair growth (appearance of hair growth and weight of the hair)” value (C3H/HeN mice; 100 μM, vs 2% minoxidil group) does the source give for `CN1C(=O)NC(Cc2c[nH]c3c(Cl)cccc23)C1=O` (stereo not shown) [necrostatin-1s] here?
A: more excellent effect of inducing hair growth compared to the group administered with commercially available minoxidil

Q: And the “hair growth effect (appearance of hair growth and weight of the hair)” value (C3H/HeN mice; group administered with necrostatin-1s (10 μM or 100 μM), vs untreated control group)?
A: excellent hair growth effect compared to the untreated control group

Q: And the “degree of hair growth induction (effect of promoting hair growth)” value (mouse vibrissae; 10 μM)?
A: excellent effect of promoting hair growth compared to the inactive type necrostatin-1

Q: `CN1C(=O)[C@@H](NC(=O)c2nnc(Cc3ccccc3)[nH]2)COc2ccccc21` [GSK2982772] was tested. Which “degree … (efficacy of promoting hair growth)” value (mouse vibrissae; 1 μM) did it give?
A: excellent efficacy of promoting hair growth

Q: And the “degree … (efficacy of promoting hair growth)” value (mouse vibrissae; 10 μM)?
A: excellent efficacy of promoting hair growth

Q: What about the “degree … (efficacy of promoting hair growth)” value (mouse vibrissae; 50 μM) of the same compound?
A: excellent efficacy of promoting hair growth

Q: What does the source list for `Oc1ccc(-c2cc3cccnc3[nH]2)cc1` [sibiriline]?
A: degree of hair growth induction (efficacy of promoting hair growth) (mouse vibrissae; 1 μM): excellent efficacy of promoting hair growth; degree of hair growth induction (efficacy of promoting hair growth) (mouse vibrissae; 10 μM): excellent efficacy of promoting hair growth

Q: With “RIPK1 siRNA: siRNA of SEQ ID NO: 1 and 2 capable of inhibiting RIP kinase expression (chain 1 GUCCUUGUGUUACCACAGA; chain 2 UCUGUGGUAACACAAGGAC; listed as RNA, chemistry not given here)” as the compound, how does the “degree of hair growth induction” value (mouse vibrissae) read?
A: hair growth was promoted
